Consider two compounds from PMC9161374 (Science Translational Medicine, 2022).

Converted amounts (≈) assume the structure as drawn. “And” between values parts separate entries of the source, which are not always exact repeats. Equal entries are not always repeated. Where two headings read alike, the source gives them in different places.

Data set [1] deals with SARS-CoV-2 (Omicron, B.1.1.529). The settings on record: Omicon, Vero E6, replicates.
Data set [2] shares this test system. The data set is described as follows: microbe, parasite or virus in culture. The settings on record: for EC50: Severe acute respiratory syndrome coronavirus 2, Vero C1008, 48 h, read-out: EC50 in Vero E6 cells, SARS-CoV-2 (Omicron, B.1.1.529); for EC90: Severe acute respiratory syndrome coronavirus 2, Vero C1008, read-out: EC90 (Confidence 95%).
For data set [3] the following is noted: macaques, NCATS of NIH ref 47; cited from earlier work.
Data set [4] is described as follows: LogP determination (1-octanol/PBS pH 7.4). The settings on record: 1-octanol/PBS pH 7.4, pH 7.4. Type of data set: physicochemical. The procedure:
The stock solutions of test compounds were prepared in DMSO to 10 mM or 30 mM. The 5 μL of stock solution (30 mM) or 15 μL of stock solution (10 mM) of each sample was placed into their proper 96-well rack. […] The assay was performed in duplicate. One stir stick was added to each vial and sealed with a molded PTFE/Silicone plug. […] After incubation, the stir sticks were removed by a magnet. To separate the phases, the samples were transferred and centrifuged at 25°C at 20,000 g for 20 min. The upper (1-octanol) and lower (buffer) phases were separated and transferred to the empty tubes. Aliquots of 5 μL were taken from the upper phase, followed by 495 μL of methanol. After 1 min of a vortex, aliquots of 50 μL were taken from the diluent, followed by 450 μL of methanol. Aliquots of 50 μL were taken from the lower phase, followed by 450 μL of methanol. The samples were evaluated by LC-MS/MS analysis, and all calculations were carried out using Microsoft Excel.

Data set [5] can be described thus: pKa determination (fast-UV, Sirius T3). The class given is physicochemical. The settings on record: methanol cosolvent titration (Sirius T3 Titrator); read-out: pKa Value (Basic). The method, then:
The pK a value of test compounds were detected by using a fast-UV method with Sirius T3 Titrator. First, the blank calibration and Fast UV buffer calibration were performed where an empty sample vial was placed in the sample position. The buffer was fully titrated, and reference spectra were collected at all pHs. The sample was then detected with the following process: Methanol was used as a cosolvent to measure the psKa (cosolvent dissociation constant). Five μL of the compound stock solution of 10 mM was added to a sample vial. Three weight/volume ratios of methanol cosolvent were tested and the total starting volume for titration was set to 1.5 mL. A spectrometer detected the turbidity, and the pH range of titration by a fast UV method was 2 to 12. The titration data was obtained from a proper titration and the psKa test result was obtained by Yasuda-Shedlovsky extrapolation method for fast UV psKa method.

Data set [6] can be described thus: Thermodynamic solubility in water. The settings on record: ultrapure water, 25°C. The class given is physicochemical. The procedure: Test compounds were weighed out for measuring the solubility (about 1.5 mg each in three separate 1.5 mL glass vials). For each compound, one vial was used to do the standard and the other two were used to measure the solubility in duplicate. The proper volume of ultrapure water was added to each vial of the solubility sample plate using pipettes. One stir stick was added to each vial and the vials were sealed using a molded polytetrafluoroethylene (PTFE)/silicone plug. […] Then the stir sticks were removed using a magnet, and the samples were transferred from the solubility sample plate into a filter plate with pipettes. All compounds were filtered under a vacuum condition. The filtrate was diluted 1000-fold with a mixture of H2O and acetonitrile (1:1 in v/v). The plates were vortexed for 5 min. For standards (STD), the necessary volume was calculated to dissolve each standard sample to the concentration of 1.5 mg/mL. DMSO was added to each standard sample. The standard vials were covered. The standard plate was placed on the Eppendorf Thermomixer Comfort plate shaker for 5 min at 25°C and 1100 rpm. After 5 min, each compound was completely dissolved. […]

The subject of data set [7] is SARS-CoV-2 (strain B.1). As to the kind of experiment: SARS-CoV-2 infection in Ad5-hACE2 mice. Type of data set: in vivo, Ad5-hACE2 BALB/c mice.
Data set [8] concerns SARS-CoV-2 (strain B.1). Also noted: species or system KI-hACE2 mice. The settings on record: mouse, in vivo.
Setting [9] is: Severe acute respiratory syndrome coronavirus 2, Vero C1008, Omicon, Vero E6, replicates.

As a reminder, the % Inhibition is the change of the read-out against control, counted positive when it falls. The low end stands for a response near the control, the high end for a response far below the control. Usually EC50 stands for the midpoint of the concentration-response curve. Usually inhibition stands for the percentage by which the read-out fell short of the control. Lower therefore signals a weak effect. The term EC90 denotes the concentration needed for an effect of 90%. For the compound `N#C[C@@]1(c2ccc3c(N)ncnn23)O[C@H](CO)[C@@H](O)[C@H]1O` [GS-441524, reference compound], the “% Inhibition” value in data set [1] (0.208 uM) is 55.9865% and 27.3736% and 80.8013%. For the same compound, in data set [1] (0.625 uM), the “% Inhibition” value was 98.5871% and 97.6862%. The “% Inhibition” value in data set [1] (2.5 uM) is 99.9728% and 99.9712%. For the same compound, the “% Inhibition” value in data set [1] (5 uM) was 99.9879% and 99.9871%. Besides, in data set [1] (10 uM), the “% Inhibition” value is 99.9637% and 99.9769%. For the same compound, in data set [2], the EC50 was 190 nM and the EC90 came to 363 nM. For the same compound, in data set [2] (Severe acute respiratory syndrome coronavirus 2, Vero C1008, Omicon, 0.069 uM, Vero E6, replicates), the inhibition at 0.069 µM was 0%. In data set [2] (setting [9]), this compound had an inhibition at 0.625 µM of 96.5%, an inhibition at 2.5 µM of 100%, an inhibition at 5 µM of 100% and an inhibition at 10 µM of 100%. Moreover, in data set [3], the oral bioavailability is on record as 8.3%.
For orientation: logP means the decadic logarithm of the partition coefficient of the neutral form, usually between octanol and water. Read a high logP as a more lipophilic compound. The pKa is the pH at which an ionisable group is half protonated. As a reminder, the solubility is how much of the substance goes into solution per volume. With `CC(C)C(=O)OC[C@H]1O[C@@](C#N)(c2ccc3c(N)ncnn23)[C@H](O)[C@@H]1O` [ATV006], the logP at 1 h in data set [4] was found to be 0.86. Besides, the “% Inhibition” value in data set [1] (0.069 uM) was 43.9482% and 49.6397%; in data set [1] (0.208 uM), 71.5175% and 88.4612%; in data set [1] (0.625 uM), 99.4508% and 99.8921%; in data set [1] (2.5 uM) it was 99.9835% and 99.9391%; in data set [1] (5 uM), 99.9795% and 99.9931%; in data set [1] (10 uM), 99.9442%. Further, in data set [2], the EC50 amounted to 106 nM. 0.008 µM produced 0% inhibition in data set [2] (Severe acute respiratory syndrome coronavirus 2, Vero C1008, Omicon, 0.008 uM, Vero E6, replicates). This compound registered an inhibition at 0.208 µM in data set [2] (Severe acute respiratory syndrome coronavirus 2, Vero C1008, Omicon, 0.208 uM, Vero E6, replicates) of 81.1%. In data set [2] (setting [9]), this compound showed an inhibition at 0.625 µM of 99.7%. Besides, the inhibition at 2.5 µM in data set [2] (setting [9]) was 99.9%. Moreover, testing at 5 µM in data set [2] (setting [9]) gave an inhibition of 100%. The compound further yielded an inhibition at 10 µM in data set [2] (setting [9]) of 100%. For the same compound, the EC90 in data set [2] came out at 269 nM. Moreover, in data set [5], the pKa turned out to be 3.66. This compound also had a solubility at 24 h in data set [6] of 686 µg/mL (≈ 1900 µM). In addition, the “Lung viral titer, Log10 (FFU/g)” value in data set [7] (250mg/kg orally once daily, 2 dpi, FFA, individual mice) was 3.924 Log10 (FFU/g) and 2.623 Log10 (FFU/g) and 3.577 Log10 (FFU/g) and 3.827 Log10 (FFU/g). In addition, the “viral load and pathological damage of the lung” value in data set [7] (ATV006 250 mg/kg, EIDD-2801 500 mg/kg, orally once daily) is “reduce the viral load and pathological damage of the lung”. Moreover, the “SARS-CoV-2 gRNA and sgRNA in lung” value in data set [8] is given as “hardly detectable”.
